Laboratory results from PubChem BioAssay AID1195 (EPA DSSTox, 2008).

System: human maximum recommended daily dose, FDA database
Experiment: DSSTox (FDAMDD) FDA Maximum (Recommended) Daily Dose Database
Settings: hits give low values
From the text: The Food and Drug Administration (FDA) Center for Drug Evaluation and Research, Office of Pharmaceutical Science, Informatics and Computational Safety Analysis Staff's Maximum Recommended Daily Dose (FDAMDD) database contains values for over 1200 pharmaceuticals listed in Martindale: The Extra Pharmacopoeia (1973, 1983, and 1993) and The Physicians' Desk Reference (1995 and 1999). Some classes of chemicals were excluded from the FDAMDD database due to their unsuitability for most QSAR modeling programs. These were inorganic chemicals, high molecular weight polymers (>5000 Daltons), fibers, salts, mixtures of organic chemicals, and small molecules (<100 Daltons). FDAMDD is the non-proprietary portion of the database that was used in the QSAR analysis reported in the Main Citation. DSSTox FDAMDD has fewer substance records than the original MRDD Source database due to consolidation of partial structures (i.e., complexed entities) into a single record and elimination of duplicate entries. DSSTox FDAMDD also differs from the MRDD Source database in presenting complete structural information pertaining to the actual salt or complexed form corresponding to the listed ChemicalName and CASRN. According to the Source authors, there are a number of cases where multiple related forms or derivatives of a drug were listed as separate records but were assumed to fall under the same clinical toxicity assessment and, therefore, assigned the same Dose_MRDD_mg activity value. For the DSSTox FDAMDD, we have labeled these derivatives in the ChemClass_MRDD_grouping field and provide their counts in the ChemicalReplicateCount field to highlight their special nature.
Maximum recommended daily dose (or maximum recommended therapeutic dose) values were determined from pharmaceutical clinical trials that employed an oral route of exposure and daily treatments, usually for 3-12 months. Drugs were given as single or divided dose treatment regimens to achieve desired pharmacological effects. Roughly 5% of the pharmaceuticals in the FDAMDD data file were antineoplastics and anesthetics and were administered intravenously and/or intramuscularly. When separate MRDDs were reported for different routes of exposure, only the oral MRDD was included in the data file and only MRDD values reported for the average adult patient were used. Pharmaceuticals that are administered orally are usually tested over a limited range of doses and have MRDDs reported as mg/day. The mg/day unit was converted to mg/kg-body weight (bw)/day based upon an average adult weighing 60 kg. In contrast, the dose unit for most antineoplastic drug MRDDs is reported as mg/m2 which was converted to mg/kg-bw/day using the formula mg/kg-bw/day = mg/m2/37 for an average adult. Additionally, a few drugs had MRDDs reported in parts per million (ppm) which were converted to mg/kg-bw/day on the basis that 1000 ppm equals 25 mg/kg-bw/day for an average 60 kg adult. Activity Score is mapping of LOG10(1/Dose_MRDD_mmol) spanning activity range [MIN, MAX] onto Integer 1-100 Activity range, where 100 is highest potency and 1 is lowest potency: ActivityScore = 100 * INTEGER[(LOGINV_MRDD_mmol - MIN)/(MAX […] MIN)]. Activity Outcome is "active" for all substances, since Dose_MRDD_mmol is reported for all substances.

[1] = TherapeuticCategory: antineoplastic
[2] = TherapeuticCategory: anxiolytic
[3] = TherapeuticCategory: skeletal muscle relaxant
[4] = TherapeuticCategory: antibacterial
[5] = TherapeuticCategory: anti inflammatory

For `CCCC1C(=O)N2C(N(C)C)=Nc3ccc(C)cc3N2C1=O` (stereo unspecified), the maximum recommended daily dose (mmol/kg-bw/day) (TherapeuticCategory: analgesic, anti inflammatory) was 0.0892.

For `C[C@H]1O[C@@H](n2cc(F)c(=O)[nH]c2=O)[C@H](O)[C@@H]1O`, the maximum recommended daily dose (mmol/kg-bw/day) [1] was 0.0812.

For `CN=C1CN(O)C(c2ccccc2)=c2cc(Cl)ccc2=N1`, the maximum recommended daily dose (mmol/kg-bw/day) [2] was 0.00557.

Work on `NCC(CC(=O)O)c1ccc(Cl)cc1` (stereo unspecified) yielded a maximum recommended daily dose (mmol/kg-bw/day) [3] of 0.00622.

`OC[C@H]1O[C@@H](n2cnc3c2NC=NC[C@H]3O)C[C@@H]1O` showed a maximum recommended daily dose (mmol/kg-bw/day) [1] of 0.000249.

For `CCOC(=O)C1=C[C@]2(CC)CCCN3CCc4c(n1c1ccccc41)[C@@H]32`, the maximum recommended daily dose (mmol/kg-bw/day) (TherapeuticCategory: cerebral vasodilator) was 0.00143.

In the case of `OC[C@@H](O)[C@H]1O[C@@H]2O[C@H](C(Cl)(Cl)Cl)O[C@@H]2[C@H]1O`, the maximum recommended daily dose (mmol/kg-bw/day) (TherapeuticCategory: sedative, hypnotic) was 0.0269.

`CN(C)[C@@H]1C(=O)C(C(N)=O)=C(O)[C@@]2(O)C(=O)C3=C(O)c4c(O)cccc4[C@@](C)(O)[C@H]3[C@H](O)[C@@H]12` was tested, and the maximum recommended daily dose (mmol/kg-bw/day) [4] was 0.0671.

Work on `Cn1cnc([N+](=O)[O-])c1Sc1ncnc2nc[nH]c12` yielded a maximum recommended daily dose (mmol/kg-bw/day) (TherapeuticCategory: immunosuppressant, antirheumatic) of 0.018.

For `CN1CCN(CCCN2c3ccccc3Sc3ccc(S(=O)(=O)N(C)C)cc32)CC1`, the maximum recommended daily dose (mmol/kg-bw/day) (TherapeuticCategory: neuroleptic, antiemetic) was 0.00149.

`CNC(C)CCC=C(C)C` (stereo unspecified) was tested, and the maximum recommended daily dose (mmol/kg-bw/day) (TherapeuticCategory: adrenergic, bronchodilator, mydriatic, antiglaucoma) was 0.0384.

For `NC(=O)c1cc[n+](CC2=C(C(=O)[O-])N3C(=O)[C@@H](NC(=O)C(c4ccccc4)S(=O)(=O)O)[C@H]3SC2)cc1` (stereo partly specified), the maximum recommended daily dose (mmol/kg-bw/day) [4] was 0.188.

In the case of `C[C@]12CCC(=O)C=C1C=C[C@@H]1[C@@H]2CC[C@@]2(C)[C@H]1CC[C@@]2(O)CCC(=O)O`, the maximum recommended daily dose (mmol/kg-bw/day) (TherapeuticCategory: diuretic) was 0.0371.

For `Cc1cc(C)cc(OCC2CNC(=O)O2)c1` (stereo unspecified), the maximum recommended daily dose (mmol/kg-bw/day) [3] was 0.484.

`CC(C)=CCC1C(=O)N(c2ccccc2)N(c2ccccc2)C1=O` was tested, and the maximum recommended daily dose (mmol/kg-bw/day) [5] was 0.039.

Work on `CC(COc1ccccc1)N(CCCl)Cc1ccccc1` (stereo unspecified) yielded a maximum recommended daily dose (mmol/kg-bw/day) (TherapeuticCategory: antihypertensive) of 0.00658.

Work on `CO/N=C(\C(=O)N[C@@H]1C(=O)N2C(C(=O)O)=CCS[C@H]12)c1csc(N)n1` yielded a maximum recommended daily dose (mmol/kg-bw/day) [4] of 0.261.

`CC(C)(O/N=C(\C(=O)N[C@@H]1C(=O)N2C(C(=O)[O-])=C(C[n+]3ccccc3)CS[C@H]12)c1csc(N)n1)C(=O)O` showed a maximum recommended daily dose (mmol/kg-bw/day) [4] of 0.243.

`O=P(O)(O)C(O)(Cc1cccnc1)P(=O)(O)O` gave a maximum recommended daily dose (mmol/kg-bw/day) (TherapeuticCategory: antiosteoporotic, Ca regulator, Ca channel blocker) of 0.000294.

`C=CCN1CC[C@]23c4c5ccc(O)c4O[C@H]2[C@@H](O)C=C[C@H]3[C@H]1C5` was tested, and the maximum recommended daily dose (mmol/kg-bw/day) (TherapeuticCategory: narcotic antagonist) was 0.00214.

`O=C1CC2(CCCC2)CC(=O)N1CCCCN1CCN(c2ncccn2)CC1` showed a maximum recommended daily dose (mmol/kg-bw/day) [2] of 0.00259.

In the case of `CN1c2cc(O)c(N=NC(N)=O)cc2CC1S(=O)(=O)O` (stereo unspecified), the maximum recommended daily dose (mmol/kg-bw/day) (TherapeuticCategory: hemostatic) was 0.00931.

`Nc1nc(N)c2nc(CNc3ccc(C(=O)NC(CCC(=O)O)C(=O)O)cc3)cnc2n1` (stereo unspecified) was tested, and the maximum recommended daily dose (mmol/kg-bw/day) (TherapeuticCategory: rodenticide) was 1.89e-05.

With `C=CCOc1ccc(CC(=O)O)cc1Cl` the maximum recommended daily dose (mmol/kg-bw/day) (TherapeuticCategory: analgesic, antipyretic, anti inflammatory) was 0.00737.

In the case of `O=C(O)CCC(=O)c1ccc(-c2ccccc2)cc1`, the maximum recommended daily dose (mmol/kg-bw/day) [5] was 0.059.

`CN(C)CCOC(c1ccc(Cl)cc1)c1ccccn1` (stereo unspecified) was tested, and the maximum recommended daily dose (mmol/kg-bw/day) (TherapeuticCategory: antihistaminic) was 0.00138.

`COc1ccc2nc(S(=O)Cc3ncc(C)c(OC)c3C)[nH]c2c1` (stereo unspecified) was tested, and the maximum recommended daily dose (mmol/kg-bw/day) (TherapeuticCategory: antiulcerative) was 0.00579.

Work on `Cc1cc2nc3c(=O)[nH]c(=O)nc-3n(C[C@H](O)[C@H](O)[C@H](O)COP(=O)(O)O)c2cc1C` yielded a maximum recommended daily dose (mmol/kg-bw/day) (TherapeuticCategory: enzyme cofactor vitamin) of 0.0011.

In the case of `O=C1NC(=O)[C@@]2(CCOc3ccc(F)cc32)N1`, the maximum recommended daily dose (mmol/kg-bw/day) (TherapeuticCategory: none) was 0.0177.

For `CC(N)Cc1ccccc1` (stereo unspecified), the maximum recommended daily dose (mmol/kg-bw/day) (TherapeuticCategory: CNS stimulant, anorexic) was 0.0074.

`CO[C@@]1(NC(=O)C(C(=O)O)c2ccc(O)cc2)C(=O)N2C(C(=O)O)=C(CSc3nnnn3C)CO[C@@H]21` (stereo partly specified) gave a maximum recommended daily dose (mmol/kg-bw/day) [4] of 0.128.
